Columns and labels:
[1] = MTT cell viability assay, FB789 reference cell line; format: cell-based; conditions: FB789 cells (normal human fibroblast)
Source text: (§1) Preliminary sunscreen data of 4a-d have been reported focusing on SKH1-E cell line, human abdominal skin explants, and in vivo hairless mouse models. Data for photo-adducts 6a-d, 7a-d, and 8a-d are not available. Thymine photo-adducts are well recognized as responsible for the activation of different molecular pathways involved in the cellular response to UV damage, including DNA repair system, melanogenesis, and Nucleotide Excision Repair (NER) system. In addition, TOP1ccs trapped near photo-adducts activates BER and remove (6-4)PPs in NER-deficient cells. TOP1 is highly expressed in malignant tumors, including carcinomas of the colon, prostate, ovary, lung, and melanoma. […] For this reason, we decided to study the antimelanoma activity of 4a-d, 6a-d, and 8a-d against two melanoma cancer cell lines, namely SK-MEL28 and RPMI7951 bearing a different genetic background. The antimelanoma activity was determined using the MTT cell viability assay, following the absorbance change (λmax 570 nm and 630 nm). The human FB789 cell line was used as reference. The CC50 (cytotoxic concentration that causes death of 50% of viable cells), IC50 (minimum concentration inhibiting 50% of the melanoma cells), and Selective Index (SI) (ratio between IC50 of reference cell line versus melanoma cell line) values are reported in Table 5. […] Compounds 4a-d were ineffective against melanoma cell lines. […] 234. Next, the antimelanoma activity of compounds 8a and 8b was evaluated after loading inside LNPs.
(§2) FB789 was grown in DMEM/F10, RPMI7951 melanoma cancer cells were grown in Minimal Essential Medium (MEM), while SK-Mel 28 melanoma cancer cells were grown in Dulbecco’s Modified Eagle Medium (DMEM). All culture media were supplemented with 10% Fetal Bovine Serum (FBS) plus 1.0 mM glutamine (40 µg/mL). The antimelanoma activity of 4a-d, 6a-d, and 8a-d was evaluated by MTT viability assay according to reference. Briefly, aliquots of the appropriate compound ([…]) were solubilized in dimethyl sulfoxide (one drops, DMSO) and administered to the selected cell line. After incubation for 3 h at 37 °C with MTT (0.5 mg/mL) the supernatant was removed, and […] of lysis solution (10% SDS and 0.6% acetic acid) was added to dissolve the formazan crystals. Optical density detection was performed by DTX880 Multimode Detector (Beckman Coulter) with 630 nm (background) and 570 nm filters. The percentage of cell viability was calculated as follows: % cell viability = 100–% cell cytotoxicity. The experiments for the evaluation of the antimelanoma activity of LNPs/8a and LNPs/8b were performed in a similar way using the appropriate amount of nanoparticles containing 1.0 mmol of the active compound and analyzing the antimelanoma activity at three different release times (2, 4, and 24 h).

SK-Mel28 = test: MTT cell viability assay, SK-Mel28 melanoma cells; format: cell-based, human; conditions: for SI (SKMel28): 24 h, ratio reference cell line FB789 versus melanoma cell line; for IC50: Homo sapiens, SK-MEL-28, 24 h
Source text: as §1, §2

RPMI7951 = test: MTT cell viability assay, RPMI7951 melanoma cells; format: cell-based, human; conditions: for SI (RPMI7951): 24 h, ratio reference cell line FB789 versus melanoma cell line; for IC50: Homo sapiens, RPMI-7951, 24 h
Source text: as §1, §2

[2] = Loading capacity and loading efficiency of lignin nanoparticles; format: physicochemical
Procedure: A further increase in the secondary solvent afforded low stable colloidal LNPs (18 mL; Table 3, entry 4) and aggregates (24 mL; Table 3, entry 5). Finally, LNPs were not formed after the addition of high volumes of deionized water (Table 3, entries 6–8). The optimal conditions affording stable colloidal LNPs (1:5 w/w and 1:10 w/w 4a/KL ratio, 3.0 mL of DMI/water 2:1 v/v, and 6.0 mL of secondary solvent) were successively applied for the encapsulation of 4b-d, and of the most abundant photo-adducts 6a-d and 8a-d. The loading capacity (LC) and loading efficiency (LE) Equations (1) and (2) were measured as a function of the concentration of the encapsulated compound [55, 56, 57, 58].
LNPs were separated by centrifugation, and the supernatant was analyzed by HPLC at λmax value of the encapsulated compound (271 nm for 4a-d, 191 nm for 6a-d, and 192 nm for 8a-d, respectively). Irrespective from the experimental conditions, the highest LE and LC were obtained in the presence of the highest value of the compound/KL ratio (compound/KL ratio of 1:5). […] (1) LC %:weight of starting drug−weight of unloaded drug/weight of lignin (2) LE %:weight of starting drug−weight of unloaded drug/weight of starting drug
LNPs were produced and loaded by the nanoprecipitation technique. The appropriate compound (3 mg) was dissolved in DMI/water (3.0 mL) at 50 °C under gentle stirring conditions followed by the addition of KL (15 mg). The fast addition of deionized water (6.0 mL) instantaneously produced LNPs. LNPs were then recovered by centrifugation (7500 rpm), washed with deionized water (10 mL) for 3 times, and lyophilized. The loading capacity (LC) and loading efficiency (LE) were evaluated by UHPLC analysis.

[3] = Cumulative (kinetic) release from lignin nanoparticles by dialysis; format: physicochemical; conditions: pH 5.5, first 4 h, 37.5 °C
Procedure: The cumulative releasing capacity of LNPs was evaluated as previously reported in the literature and normalized with respect to the total amount of entrapped compound. In a typical procedure, the appropriate LNPs (7.5 mg) were suspended in water (3.0 mL) and dialyzed against deionized water (60.0 mL) at two selected pH values (pH 7.4 and 5.5, respectively) at 37.5 °C for 24 h. The amount of released compound was measured by UV–vis spectrophotometry at the optimal λmax value for each compound by sampling the dialysis solution at appropriate time intervals (Figure 4). The withdrawn volume was replaced by corresponding deionized water in order to maintain constant the volume of the solution (Section 3).
LNPs (7.5 mg, compound/KL 1:5 ratio) were suspended in water (3.0 mL), placed in a dialysis membrane, and immersed in PBS buffer (60 mL) at two selected pH values (7.4 and 5.5, respectively) at 37.5 °C for 24 h. A similar procedure was applied solubilizing LNPs/8b (7.5 mg) water (3.0 mL), followed by dialysis against the culture medium DMEM (60 mL). […] The quantification of released compound was conducted by UV–Vis spectrophotometry at the λmax characteristic for each type of compound (271 nm for 4a-d, and 191 and 192 nm for 6a-d and 8a-d, respectively) using semi-micro cuvettes. […]

[4] = design: method as in PMID 25075037; conditions: commercial antitumor agents; cited from earlier work
[5] = UV shielding (photo-protective) capacity of loaded LNPs; format: physicochemical; conditions: after 15 min of irradiation, loaded in LNPs versus free compound
Procedure: The UV shielding capacity of LNPs allows them to protect bioactive compounds from premature deactivation. To evaluate the photo-protective role of LNPs we studied the irradiation of LNPs/4a, LNPs/6a, LNPs/7a, and LNPs/8a as a selected representative example of thymine dimers. The samples were suspended in DMI/water mixture (2:1 v/v, 1.0 mL) and treated with UV under previously reported experimental conditions. At scheduled times (5, 10, and 15 min), aliquots (0.2 mL) of the suspension were withdrawn and analyzed. An excess of DMI (1.0 mL) was added to disaggregate LNPs, followed by filtration of residual lignin. The residual concentrations of 4a, 6a, 7a, and 8a (expressed as % with respect to the starting material) were evaluated at λmax 271 nm. Data were compared with 4a, 6a, 7a, and 8a after irradiation under similar experimental conditions (Figure 3).
LNPs/4a were prepared following the standard procedure previously described. Typically, LNPs/4a (1.0 mg) suspended in DMI/water mixture (2:1 ratio, 1.0 mL) were deposited on a glass lens and irradiated with Haerus source (250 Watt, the lamp was at 20.0 cm distance). […] The photo-protection capacity of LNPs was determined by measuring the decrease in absorbance (λmax 271 nm) of recovered 4a compared with free reference (Varian UVCary-50). […]

Structure (SMILES) | CC50 at 24 h [1] [µM] | SI (SKMel28) (SK-Mel28) | IC50 (SK-Mel28) [µM] | SI (RPMI7951) (RPMI7951) | IC50 (RPMI7951) [µM] | LC% ([2]; Compd/KL ratio 1:5) [%] | LE% ([2]; Compd/KL ratio 1:5) [%] | LC% ([2]; Compd/KL ratio 1:10) [%] | LE% ([2]; Compd/KL ratio 1:10) [%] | cumulative release [3] [%] | SI [4] | photo-protection capacity [5] [%]
Cc1cn(CCCCCCn2cc(C)c(=O)[nH]c2=O)c(=O)[nH]c1=O [Compound 4d, N1,N1′-(hexane-1,6-diyl)bis-thymine] | 392 ± 5.2 | 2.3 | 169 ± 4.6 | 1.14 | 343 ± 7.6 | 14.37 | 71.85 | 7.14 | 71.41 | 71 | – | –
CC12C(=O)NC(=O)N3CCCCCCN4C(=O)NC(=O)C1(C)C4C32 (centres unmarked) [Compound 6d, 9a,9b-dimethyldecahydro-6a,8,11,12a-tetraazacyclodeca[def]biphenylene-7,9,10,12(8H,11H)-tetraone] | 377 ± 14.8 | 4.3 | 87.9 ± 1.9 | 1.6 | 234.9 ± 1.6 | 13.22 | 72.61 | 11.54 | 71.98 | – | – | –
CC12C(=O)NC(=O)N3CCCN4C(=O)NC(=O)C1(C)C4C32 (centres unmarked) [Compound 6a, 6a,6b-dimethylhexahydro-1H-3a,5,8,9a-tetraazacyclohepta[def]biphenylene 4,6,7,9(5H,8H)-tetraone] | 375 ± 28.2 | 4.39 | 85.2 ± 0.9 | 2.7 | 138 ± 2.1 | 6.93 | 37.40 | 6.81 | 41.12 | – | – | –
CC[C@@]1(O)C(=O)OCc2c1cc1n(c2=O)Cc2cc3ccccc3nc2-1 [camptothecin] | – | – | – | – | – | – | – | – | – | – | 88.3 | –
Cc1cn2c(=O)nc1C1N(CCC2)C(=O)NC(=O)C1(C)O (centres unmarked) [Compound 7a, 4-hydroxy-4,6-dimethyl-4,4a,10,11-tetrahydro-1H,9H-5,8-(azenomethano)pyrimido[1,6-e][1,5]diazonine-1,3,13(2H)-trione] | – | – | – | – | – | – | – | – | – | – | – | ~40
Cc1cn(CCCCn2cc(C)c(=O)[nH]c2=O)c(=O)[nH]c1=O [Compound 4b, N1,N1′-(butane-1,4-diyl)bis-thymine] | 839 ± 10.9 | 4.9 | 169 ± 4.6 | 0.07 | 12400 | 10.38 | 51.91 | 4.24 | 52.40 | – | – | –
Cc1cn(CCCn2cc(C)c(=O)[nH]c2=O)c(=O)[nH]c1=O [Compound 4a, N1,N1′-(propane-1,3-diyl)bis-thymine] | 1450 ± 56.2 | 4.7 | 304.3 ± 2.4 | 2.7 | 543.1 ± 2.7 | 5.59 | 49.94 | 4.93 | 49.26 | – | – | –
CC12C(=O)NC(=O)N3CCCCCN4C(=O)NC(=O)C1(C)C4C32 (centres unmarked) [Compound 6c, 8a,8b-dimethyloctahydro-1H-5a,7,10,11a-tetraazacyclonona[def]biphenylene-6,8,9,11(7H,10H)-tetraone] | 234 ± 7.3 | 0.83 | 282 ± 4.4 | 1.2 | 195 ± 3.8 | 11.46 | 51.12 | 10.48 | 47.86 | – | – | –
COc1cccc2c1C(=O)c1c(O)c3c(c(O)c1C2=O)C[C@@](O)(C(=O)CO)C[C@@H]3O[C@H]1C[C@H](N)[C@H](O)[C@H](C)O1 [doxorubicin] | – | – | – | – | – | – | – | – | – | – | 26.0 | –
Cc1cn(CCCCCn2cc(C)c(=O)[nH]c2=O)c(=O)[nH]c1=O [Compound 4c, N1,N1′-(pentane-1,5-diyl)bis-thymine] | 1660 ± 36.3 | 5.7 | 292.9 ± 2.5 | 4.6 | 357 ± 5.1 | 12.52 | 69.70 | 6.97 | 62.59 | – | – | –
CC12C(=O)NC(=O)N3CCCCN4C(=O)NC(=O)C1(C)C4C32 (centres unmarked) [Compound 6b, 7a,7b-dimethyloctahydro-4a,6,9,10a-tetraazacycloocta[def]biphenylene-5,7,8,10(6H,9H)-tetraone] | 109 ± 5.4 | 6.09 | 17.9 ± 1.9 | 1.4 | 77.8 ± 1.8 | 9.59 | 50.94 | 9.33 | 50.74 | – | – | –
O=c1[nH]cc(F)c(=O)[nH]1 [Compound 5-FU, 5-fluro uracil] | – | – | – | – | – | – | – | – | – | – | 55.6 | –

Reference: PMC8777952, “Lignin Nanoparticles Deliver Novel Thymine Biomimetic Photo-Adducts with Antimelanoma Activity” (International Journal of Molecular Sciences, 2022)
